The values below come from US4307097A, “Method of reducing increased intracranial pressure” (Tanabe Seiyaku Co., Ltd., priority 1979, dated 1981).

For data set [1], the system named is intracranial pressure. The data set is described as follows: Effect of i.v. injection of test compounds on intracranial pressure in rats. It counts as in vivo, rat (male SD-strain). Particulars: rat, 0 minute = 100. The source says: Male SD-strain rats weighing 500 to 800 g (each group consisting of 5 rats) were anesthetized with urethane. […] Intracranial pressure (i.e., cerebrospinal fluid pressure in the cisterna magna) was continuously monitored via a cannula inserted in the cisterna magna. The cannula was connected to a transducer, and recordings were made on graph paper.

Data set [2] relates to intracranial pressure. The data set is described as follows: Effect of p.o. administration of test compounds on intracranial pressure in rats. It counts as in vivo, rat (male SD-strain). Conditions: rat, 8 mg/kg, 240 minutes, 0 minute = 100. As for the experimental part: Male SD-strain rats weighing 500 to 800 g (each group consisting of 5 rats) were fasted for about 20 hours, and anesthetized with urethane. A suspension of a test compound in aqueous 0.5 w/v % carboxymethyl-cellulosewas administered orally to the rats. Then, the effect of the compound on the intracranial pressure was estimated in the same manner as described in Example 1.
Compound 4 (free base) listed in Example 1 was used in this experiment.

The next data set in a line: Acute toxicity. Conditions: in vivo, mouse, observed for a week. On the procedure:
The 50% lethal dose (LD50) of the test compound was calculated according to the Weil's method from the number of mice died a week after the administration.

The nature of data set [3]: Therapeutic index (ratio of LD50 to minimum effective dose). Conditions: orally or intravenously. It counts as in vivo. An excerpt: Unlike the hypertonic solutions of glycerol or mannitol, the therapeutic effect of the propanol derivative (I) of the present invention is not ascribable to the cerebral dehydrating effect and, therefore, said derivative (I) can be used either orally or parenterally. The propanol derivative (I) may also be used for the treatment of prophylaxis of increased intracranial pressure during and after brain surgical operation. Moreover, the propanol derivative (I) may be used for improving impaired consciousness, nervous disturbance and subjective symptoms (e.g., headache, nausea, vomiting) which are attributed to the cerebral diseases such as those mentioned hereinbefore. Further, whereas it is known that cerebral edema induces a rise in intracranial pressure and increased intracranial pressure serves to cause a build-up of edema which in turn impairs cerebral circulation, the propanol derivative (I) can interrupt this vicious cycle of cerebral diseases because of its potent intracranial pressure-lowering effect and its ability to ameliorate the cerebral circulatory impairment. The toxicity of the propanol derivative (I) of the present invention is low.

The subject of data set [4] is increased intracranial pressure. The data set is described as follows: Effect of i.v. injection on increased intracranial pressure (autologous blood injected into the brain) in rats. It counts as in vivo, rat (male SD-strain). Conditions: rat, 0 minute = 100. On the procedure:
Male SD-strain rats weighing 500 to 800 g (each group consisting of 5 rats) were anesthetized with urethane. 0.03 ml of autologous blood were injected into the brain of the rats to induce an increase in intracranial pressure. The level of increased intracranial pressure in the rats was about twice as high as its initial level 120 to 180 minutes after injection of autologous blood and said increased intracranial pressure was maintained at an approximately same level thereafter. 180 minutes after injection of autologous blood, a solution of a test compound in an aqueous 5 w/v % mannitol solution was infused via the femoral vein of the rats at a rate of 0.2 ml/kg/minute for 40 minutes. Then, the effect of the test compound on the intracranial pressure was calculated according to the following formula: [formula]
Compound No. 4 listed in Example 1 was used in this experiment.

Data set [5] relates to intracranial pressure. The data set is described as follows: Effect of i.v. injection of test compounds on intracranial pressure in beagle dogs. It is filed as in vivo, beagle dog (male). Conditions: beagle dog, 1.0 mg/kg, 0 minute = 100. As for the experimental part:
A solution of a test compound in an aqueous 5 w/v % mannitol solution was infused via the saphenous vein of the beagle dogs at a rate of 0.1 ml/kg/minute for 40 minutes.

Data set [6] deals with increased intracranial pressure. Description: Effect of i.v. injection on increased intracranial pressure (autologous blood injected into the lateral ventricle) in rabbits. It is filed as in vivo, rabbit (male). Particulars: rabbit, 0 minute = 100. As for the experimental part: Male rabbits weighing 2.8 to 3.2 kg (each group consisting of 6 rabbits) were anethetized with urethane. 0.1 to 0.2 ml of autologous blood were injected into the lateral ventricle of the rabbits to induce a rise in intracranial pressure. The level of intracranial pressure was about 2.3 times as high as its initial level 150 to 180 minutes after injection of autologous blood. 180 minutes after injection of autologous blood, a solution of a test compound in an aqueous 10 w/v % maltose solution was administered intravenously to the rabbits at a rate of 0.1 ml/kg/minute for 20 minutes. Then, the effect of the test compound on the intracranial pressure was calculated in the same manner as described in Example 2. [The initial intracranial pressure (i.e., the normal intracranial pressure measured before injection of autologous blood) was 75±2.6 mm H2 O, and the intracranial pressure measured before administration of test compound was 176±16 mm H2 O.]
Compound 4 listed in Example 1 was used in this experiment.

The test system of data set [7] is common carotid blood flow. Description: Effect of test compounds on common carotid blood flow in cats. It counts as in vivo. Conditions: cat, right thyroid artery, 30 seconds after administration, baseline 24.1 ± 0.9 ml/minute. On the procedure: A solution of a test compound in an aqueous 10 w/v % maltose solution was injected into the right thyroid artery of the cats. The common carotid artery blood flow was continuously monitored via the flow probe set at the common carotid artery. The flow probe was connected to an electromagnetic flow meter, and recordings were made on graph paper. The effect of the test compound on the common carotid blood flow was estimated 30 seconds after administration of the test compound.

A word on the LD50: it is the dose expected to kill half of the subjects tested. A high value points to a less toxic substance.

As for `COc1cc(NC(C)=O)ccc1OCC(O)CN1CCN(c2ccccc2)CC1` (centres unmarked) [Compound 1, 1-(4-acetamido-2-methoxyphenoxy)-3-(4-phenylpiperazino)-2-propanol], the “Changes in intracranial pressure” value in the data set with intracranial pressure [1] (1.0 mg/kg, 40 minutes) stood at 81.4%; in the data set with intracranial pressure [1] (1.0 mg/kg, 60 minutes), 85.5%; in the data set on intracranial pressure [1] (1.0 mg/kg, 120 minutes), 91.7%; in the data set with intracranial pressure [1] (1.0 mg/kg, 180 minutes) it was 92.8%.

Turning to `COc1cc(NC(C)=O)ccc1OCC(O)CN1CCN(c2ccccc2C)CC1` (centres unmarked) [Compound 2, 1-(4-acetamido-2-methoxyphenoxy)-3-[4-(2-methylphenyl)piperazino]-2-propanol], the “Changes in intracranial pressure” value with intracranial pressure [1] (1.0 mg/kg, 40 minutes) turned out to be 90.5%; in the data set with intracranial pressure [1] (1.0 mg/kg, 60 minutes) it was 90.7%; in the data set with intracranial pressure [1] (1.0 mg/kg, 120 minutes), 90.1%; with intracranial pressure [1] (1.0 mg/kg, 180 minutes) it was 91.5%.

Turning to `COc1cc(NC(C)=O)ccc1OCC(O)CN1CCN(c2ccccc2Cl)CC1` (centres unmarked) [Compound 3, 1-(4-acetamido-2-methoxyphenoxy)-3-[4-(2-chlorophenyl)piperazino]-2-propanol], the “Changes in intracranial pressure” value in the data set with intracranial pressure [1] (1.0 mg/kg, 40 minutes) came out at 92.4%; in the data set on intracranial pressure [1] (1.0 mg/kg, 60 minutes), 87.5%; in the data set with intracranial pressure [1] (1.0 mg/kg, 120 minutes) it was 85.3%; with intracranial pressure [1] (1.0 mg/kg, 180 minutes), 85.0%.

Take `COc1cc(NC(C)=O)ccc1OCC(O)CN1CCN(c2cccc(F)c2)CC1` (centres unmarked) [Compound 4 (free base), 1-(4-acetamido-2-methoxyphenoxy)-3-[4-(3-fluorophenyl)piperazino]-2-propanol]: the “Changes in intracranial pressure” value with intracranial pressure [2] is recorded as 75.6%. This molecule also gave an LD50 at 168 h in “Acute toxicity” (po) of 1550 mg/kg. For the same molecule, in data set [3], the “therapeutic index (50% lethal dose / minimum effective dose)” value is on record as “not less than 400”.

With `COc1cc(NC(C)=O)ccc1OCC(O)CN1CCN(c2cccc(F)c2)CC1.Cl` (centres unmarked) [Compound 4, 1-(4-acetamido-2-methoxyphenoxy)-3-[4-(3-fluorophenyl)piperazino]-2-propanol hydrochloride], the “Changes in intracranial pressure” value in the data set with intracranial pressure [1] (0.5 mg/kg, 40 minutes) is 84.3%; with intracranial pressure [1] (0.5 mg/kg, 60 minutes), 80.5%; with intracranial pressure [1] (0.5 mg/kg, 120 minutes), 86.5%; in the data set on intracranial pressure [1] (0.5 mg/kg, 180 minutes), 86.7%; in the data set with intracranial pressure [1] (1.0 mg/kg, 40 minutes) it was 82.6%; with intracranial pressure [1] (1.0 mg/kg, 60 minutes), 78.1%. In addition, the “Changes in intracranial pressure” value was 82.2% in the data set with intracranial pressure [1] (1.0 mg/kg, 120 minutes); 85.2% in the data set on intracranial pressure [1] (1.0 mg/kg, 180 minutes); 81.5% with intracranial pressure [1] (2.0 mg/kg, 40 minutes); 72.5% with intracranial pressure [1] (2.0 mg/kg, 60 minutes); 74.6% in the data set on intracranial pressure [1] (2.0 mg/kg, 120 minutes); 78.9% with intracranial pressure [1] (2.0 mg/kg, 180 minutes). Also, the “Changes in intracranial pressure” value in data set [4] (0.5 mg/kg, 40 minutes) is recorded as 68.0%; in data set [4] (0.5 mg/kg, 60 minutes) it was 65.4%; in data set [4] (0.5 mg/kg, 120 minutes), 74.6%; in data set [4] (0.5 mg/kg, 180 minutes), 76.0%; in data set [4] (1.0 mg/kg, 40 minutes) it was 56.7%; in data set [4] (1.0 mg/kg, 60 minutes) it was 60.9%. Further, the “Changes in intracranial pressure” value in data set [4] (1.0 mg/kg, 120 minutes) stood at 59.2%; in data set [4] (1.0 mg/kg, 180 minutes), 60.6%; in the data set with intracranial pressure [5] (40 minutes), 80.3%; with intracranial pressure [5] (60 minutes), 75.6%; with intracranial pressure [5] (120 minutes), 82.5%; in the data set with intracranial pressure [5] (180 minutes), 83.1%. Further, the “Changes in intracranial pressure” value in data set [6] (1 mg/kg, 20 minutes) worked out at 96.4%; in data set [6] (1 mg/kg, 60 minutes) it was 91.7%; in data set [6] (1 mg/kg, 120 minutes), 82.1%; in data set [6] (1 mg/kg, 180 minutes), 94.0%; in data set [6] (1 mg/kg, 240 minutes), 91.7%; in data set [6] (1 mg/kg, 300 minutes), 91.7%. Besides, the “Changes in intracranial pressure” value in data set [6] (2 mg/kg, 20 minutes) is listed as 89.5%; in data set [6] (2 mg/kg, 60 minutes), 77.1%; in data set [6] (2 mg/kg, 120 minutes), 68.6%; in data set [6] (2 mg/kg, 180 minutes), 63.8%; in data set [6] (2 mg/kg, 240 minutes), 65.7%; in data set [6] (2 mg/kg, 300 minutes), 63.8%. Also, the “Increase in common carotid blood flow” value in data set [7] (1 μg/kg) is reported as 3.5 ± 0.8 Δml/minute; in data set [7] (5 μg/kg) it was 6.1 ± 0.6 Δml/minute; in data set [7] (10 μg/kg), 8.8 ± 1.3 Δml/minute. In addition, the LD50 at 168 h in the data set “Acute toxicity” (iv) was 280 mg/kg.

As for `COc1cc(NC(C)=O)ccc1OCC(O)CN1CCN(c2ccccc2F)CC1` (centres unmarked) [Compound 5, 1-(4-acetamido-2-methoxyphenoxy)-3-[4-(2-fluorophenyl)piperazino]-2-propanol], the “Changes in intracranial pressure” value was 84.0% in the data set with intracranial pressure [1] (1.0 mg/kg, 40 minutes); 84.0% in the data set with intracranial pressure [1] (1.0 mg/kg, 60 minutes); 81.3% with intracranial pressure [1] (1.0 mg/kg, 120 minutes); 87.5% with intracranial pressure [1] (1.0 mg/kg, 180 minutes).

With `COc1cc(NC(C)=O)ccc1OCC(O)CN1CCN(c2cccc(C(F)(F)F)c2)CC1` (centres unmarked) [Compound 6, 1-(4-acetamido-2-methoxyphenoxy)-3-[4-(3-trifluoromethylphenyl)piperazino]-2-propanol], the “Changes in intracranial pressure” value was found to be 97.0% in the data set on intracranial pressure [1] (1.0 mg/kg, 40 minutes); 95.0% with intracranial pressure [1] (1.0 mg/kg, 60 minutes); 90.5% in the data set with intracranial pressure [1] (1.0 mg/kg, 120 minutes); 92.8% with intracranial pressure [1] (1.0 mg/kg, 180 minutes).

Take `COc1ccc(Cc2nccc3cc(OC)c(OC)cc23)cc1OC` [Papaverine, reference compound]: the entries for the “Increase in common carotid blood flow” value in data set [7] (10 μg/kg) and in data set [7] (25 μg/kg) were 2.6 ± 0.2 Δml/minute and 5.4 ± 0.6 Δml/minute, respectively.
